US20250361217A1, “FATTY ACID COMPOUNDS” (University of Pittsburgh - Of the Commonwealth System of …, priority 2022, published 2025)

Legend:
Assay type in all cases: in vivo
[1] = system: HFD model in C57BL/6J mice; experiment: Liver histology (H&E) scores of steatosis, ballooning, inflammation in HFD mice; conditions: 50 mg/kg
Description: Male C57BL/6J mice were purchased from Jackson Laboratory (Bar Harbor, ME, USA). Mice were acclimated for a week before being randomized to receive either a low-fat diet (LFD) or a high-fat diet (HFD) purchased from Research Diets (New Brunswick, NJ, USA). Obesity was induced by the HFD (D12492, with 60% of the adjusted calories derived from fat) for 16 weeks beginning at age of 8 weeks. Age-matched controls were maintained on a LFD (D12450J, matching the sucrose level of D12492). While maintaining the diet, mice under HFD were divided into 4 groups (n=8 per group) and were treated every 2 days by oral gavage for 7 weeks with 100 μl of 11D3 (50 mg/kg), 11U3 (50 mg/kg), or 11U3-2M (50 mg/kg) formulated in a solution of 2:1 of polyethylene glycol (Fisher Scientific, PEG400 #p167-1) and saline, containing 1.5% of octanoic acid (TCI, #00027). Control groups received 100 μl of PEG400/saline/octanoic acid as the vehicle (Veh). LFD mice were divided into 2 groups (n=8 per group) and treated with veh or 11D3 (50 mg/kg) to detect any effect of natural FuFA in LFD. […] Food intake, water consumption, and mouse weight were monitored every week. […]
The fixed Liver tissues embedded in paraffin were cut into 4 μm sections. […] Quantifications and scores of liver steatosis, ballooning, and inflammation were performed blindly by a pathologist based on 3 parameters—steatosis, inflammation, hepatocyte degeneration.

[2] = FuFA-CoA detection in liver by mass spectrometry; conditions: livers of FuFA-treated HFD mice
Procedure: Liver powder (50 mg) was used and dissolved in plastic Eppendorf with […] of milli-Q purified water and vortexed well. Then, 200 μl of ACN containing 400 nM n-Heptadecanoyl coenzyme A lithium salt as internal standard (C17-CoA standard, NuCheck) was added, vortexed thoroughly, and centrifuged for 4 min at 10000 g at 4° C. For protein precipitation, the supernatant was transferred to a new tube and 20 μl was diluted with 180 μl of ACN/water (4:1 ratio) in clean mass spectrometry vials for analysis of CoA's.
FuFA-CoA in liver and primary hepatocytes were detected with an API 5000™ mass spectrometer after chromatographic separation using a 150×2 mm Luna® 5 μm C8 100 C8 Å LC column (OOF-4040-BO) with 5% solvent B (ACN, 0.1% ammonium) at a flow rate of 0.35 ml/min using a system solvent started in 5% solvent B (ACN, 0.1% ammonium hydroxide) and 95% of solvent A(water+0.1% ammonium hydroxide) for 30 seconds, followed by an increase from 5-65% gradient of solvent B over 6 min, followed by re equilibrate condition. Quantitation of analyte and internal standard peak areas was determined using the Quantitation Wizard in Sciex's Analyst® Software.

[3] = system: HFD model in C57BL/6J mice; experiment: Glucose tolerance test (GTT) in HFD NAFLD mouse model
Description: Male C57BL/6J mice were purchased from Jackson Laboratory (Bar Harbor, ME, USA). Mice were acclimated for a week before being randomized to receive either a low-fat diet (LFD) or a high-fat diet (HFD) purchased from Research Diets (New Brunswick, NJ, USA). Obesity was induced by the HFD (D12492, with 60% of the adjusted calories derived from fat) for 16 weeks beginning at age of 8 weeks. Age-matched controls were maintained on a LFD (D12450J, matching the sucrose level of D12492). While maintaining the diet, mice under HFD were divided into 4 groups (n=8 per group) and were treated every 2 days by oral gavage for 7 weeks with 100 μl of 11D3 (50 mg/kg), 11U3 (50 mg/kg), or 11U3-2M (50 mg/kg) formulated in a solution of 2:1 of polyethylene glycol (Fisher Scientific, PEG400 #p167-1) and saline, containing 1.5% of octanoic acid (TCI, #00027). Control groups received 100 μl of PEG400/saline/octanoic acid as the vehicle (Veh). LFD mice were divided into 2 groups (n=8 per group) and treated with veh or 11D3 (50 mg/kg) to detect any effect of natural FuFA in LFD. Mice were grouped to start at the same weight mean before starting the treatment. During and before gavage treatment, mice were fed ad libitum and given free access to water. Food intake, water consumption, and mouse weight were monitored every week. At 20 weeks (4 weeks of treatment), a glucose tolerance test (GTT) was performed on all cohorts. After 2 weeks of recovery (22 weeks), a whole-body composition was performed using EchoMRI™-100H. At the end of the 23 weeks study, mice were euthanized with isoflurane followed by laparotomy. The blood was collected, and mice were perfused using 0.9% NaCl. Organs were harvested and snap-frozen in liquid nitrogen gas and stored at −80° C. for further analysis. The Cellerusher (Cell Crusher, Schull, Ireland) tissue pulverizer was used to reduce frozen tissues to a fine, easily recoverable powder using dry ice. For immunohistochemistry, the same liver lobe for every mouse was fixed in Formalin 10% (Fisher Chemical, #SF98-4) for 48h, followed by 75% ethanol baths before paraffin embedding.
GTT was performed on mice fasted for 5h. Mice were injected intraperitoneally with filter-sterilized 1.5 g/kg glucose in 0.9% NaCl. Blood glucose levels were measured using a hand-held glucometer (Accu-Chek Aviva, Roche Diagnostics, Indianapolis, IN, USA) at 0, 20, 40, 60, 90, and 120 min.

liver of HFD mice = experiment: Untargeted/targeted metabolomic mass spectrometry of liver (sphingolipids, acylcarnitine)
Procedure: Liver powder (50 mg) was resuspended in 500 μL of H2O and extracted using ethyl acetate (1 mL). Phases were separated by centrifugation for 5 min at 1500 g at 4° C. and the organic phase was collected and dried under nitrogen gas. For acetonitrile precipitation, 200 μL of ice-cold ACN was added to liver tissue homogenized in water and vortexed thoroughly. Samples were centrifuged for 5 min at 1500 g at 4° C. and all the phases were removed and dried under nitrogen gas. Dried samples were reconstituted with McOH and transferred to clean mass spectrometry vials for analysis.
Mass spectrometry data was collected using a Q Exactive Orbitrap (ThermoFisher Scientific) to obtain high-resolution accurate mass data in positive and negative ion modes. Two different Chromatography system were used: The organic phase from Bligh and Dyer extraction sample was performed using a 100×2 mm Luna® 5 μm C18(2) column (phenomenex,00D-4252-BO) with a 0-100% gradient of solvent B (90:10 isopropyl alcohol, ACS reagent for HPLC (Honeywell #AH323):ACN, 0.1% formic acid, reagent grade (Sigma #F0507) and solvent A (70:30 Water, Optima™ LC/MS Grade (Fisher #W6500):acetonitrile, 0.1% formic acid) over 20 min, followed by 100% solvent B for 6 min before a return to 0% solvent B for 4 min at a flow rate of 0.650 mL/min. Chromatography for aqueous Bligh and Dyer phase and acetonitrile precipitation extract was performed using the same column with a gradient of 10-100% solvent D (ACN, 0.1% formic acid) and solvent C (water, 0.1% formic acid) over 18 min, followed by 100% solvent D for 6 min before returning to 10% solvent D for 6 min at a flow rate of 0.650 mL/minute. […]
Ceramide and carnitine conjugates were extracted in the presence of ceramide standard (18:1/17:0) (N-heptadecanoyl-D-erythro-sphingosine, Avanti Polar Lipids #860517) using ethyl acetate and quantified using mass spectrometry.
Mass spectrometry data was collected using an API 5000 LC/MS/MS in positive ion mode. […] Quantitation of analyte and internal standard peak areas was determined using the Quantitation Wizard in Sciex's Analyst® Software.

For `CCCc1ccc(CCCCCCCCCC(C)(C)C(=O)O)o1` [11U3-2M, 2,2-Dimethyl-11-(5-propylfuran-2-yl)undecanoic acid], which “ballooning degeneration of hepatocytes vs HFD+veh” value [1] is on record?
The value was “significantly alleviated”.

And the “liver steatosis vs HFD+veh” value [1]?
Its value is “significantly alleviated”.

What about the “FuFA-CoA conjugate in liver (ratio to C17:0-CoA)” value [2] of the same compound?
Its value is “significantly elevated”.

What about the “blood glucose clearance measured by GTT compared to veh” value ([3]; 50 mg/kg gavage every 2 days, after 4 weeks of treatment) of the same compound?
The value was “significantly improved”.

What about the “decrease in glucose area under the curve from 0 to 120 min vs veh” value ([3]; 50 mg/kg, 4 weeks) of the same compound?
Its value is 24%.

What about the fasting blood glucose ([3]; 50 mg/kg, 4 weeks) of the same compound?
Its fasting blood glucose is “trend in decreased glucose”.

And the “less glucose in GTT vs veh” value ([3]; 20 min time point, 50 mg/kg, 4 weeks)?
Its value is 18%.

And the “less glucose in GTT vs veh” value ([3]; 40 min time point, 50 mg/kg, 4 weeks)?
Its value is 26%.

What about the “less glucose in GTT vs veh” value ([3]; 60 min time point, 50 mg/kg, 4 weeks) of the same compound?
The value was 22%.

What about the “liver metabolites changed by HFD (untargeted metabolomics)” value (liver of HFD mice; 50 mg/kg) of the same compound?
The value was “returned the liver to its basal condition”.

And the “liver sphingomyelins SM(18:1/16:0), SM(18:1/20:0), SM(18:1/24:0) vs HFD+veh” value (liver of HFD mice; effect relative to that on ceramides)?
The value was “analogous”.

And the “liver ceramides (e.g. Cer(18:1/16:0), Cer(18:1/20:0), total ceramide) vs HFD+veh” value (liver of HFD mice; targeted quantification)?
Its value is “significant reduction”.
